From US12378248B2 (The United States of America, as represented by the …, priority 2018, dated 2025)
Where a chain is given by its changes, count along the chain named. Read-outs that look alike come from different tables or passages of the source.

Key:
mA1AR [1] = target: T1, mA1AR (Mus musculus, UniProt Q60612); assay: Adenosine receptor binding, mA1AR; conditions: for Binding selectivity for mA1AR: compared to mA3AR; for Ki: (m), read-out: A1AR % inhibition or Ki (converted)
T1 sequence (Q60612 1-326): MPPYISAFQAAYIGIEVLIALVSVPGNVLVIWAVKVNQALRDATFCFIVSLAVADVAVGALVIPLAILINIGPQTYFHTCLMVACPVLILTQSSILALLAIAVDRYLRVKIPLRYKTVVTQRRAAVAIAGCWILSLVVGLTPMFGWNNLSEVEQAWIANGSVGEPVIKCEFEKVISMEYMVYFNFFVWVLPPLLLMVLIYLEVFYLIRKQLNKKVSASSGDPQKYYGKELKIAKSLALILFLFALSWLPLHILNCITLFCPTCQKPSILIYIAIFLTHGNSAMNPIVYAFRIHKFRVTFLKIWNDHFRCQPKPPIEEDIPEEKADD

mA1AR [2] = target: T1, mA1AR; assay: Guanine nucleotide ([35S]GTPγS) binding assay; type: biochemical
Method: (§1) cLogP was calculated using ChemDraw Professional, v. 16.0. Binding selectivity for mA1Ar is expressed in terms of fold, compared to mA3AR (Data from Table 1).

mA3AR [3] = target: T2, mA3AR (Mus musculus, UniProt Q61618); assay: Guanine nucleotide ([35S]GTPγS) binding assay; type: biochemical; conditions: effect of 10 μM test compound as % of 10 μM 16
T2 sequence (Q61618 1-319): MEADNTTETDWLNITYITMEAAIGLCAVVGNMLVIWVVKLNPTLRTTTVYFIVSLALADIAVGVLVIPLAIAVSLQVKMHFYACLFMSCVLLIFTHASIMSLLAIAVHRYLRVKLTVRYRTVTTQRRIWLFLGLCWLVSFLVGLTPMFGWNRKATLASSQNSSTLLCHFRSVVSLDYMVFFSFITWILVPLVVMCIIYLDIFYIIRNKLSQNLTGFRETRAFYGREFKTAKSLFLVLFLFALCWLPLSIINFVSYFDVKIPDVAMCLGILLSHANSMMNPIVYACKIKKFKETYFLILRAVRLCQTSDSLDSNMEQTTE
Method: as §1

wild-type C57BL/6J mice [4] = assay: Hypothermia (Tb by telemetry) after ip dosing; type: in vivo, mouse; conditions: 3 mg/kg ip; average from dosing to 60 min; mean±SD
Method: (§2) Compounds were dosed ip. Tb and activity were measured by telemetry and the averages from dosing to 60 min were calculated. […] Data are for the highest dose used and are mean±SD from 3 to 22 mice/group (usually 5-7). P values are unpaired t-Test vs vehicle-treated controls assayed simultaneously. Vehicle data are mean±SD from all (n=83) vehicle treated mice.

wild-type C57BL/6J mice [5] = assay: Locomotor activity by telemetry after ip dosing; type: in vivo, mouse; conditions: 3 mg/kg ip; average from dosing to 60 min; mean±SD
Method: as §2

[6] = Plasma protein binding at 10 μM; type: in vitro ADME, human; conditions: unbound percent ± standard deviation
Method: (§3) Plasma protein binding in human plasma, mouse plasma, and rat plasma was determined. Verapamil and warfarin served as positive controls. The results are expressed as unbound percent±standard deviation.

[7] = Plasma protein binding at 10 μM; type: in vitro ADME, mouse; conditions: unbound percent ± standard deviation
Method: as §3

[8] = Plasma protein binding at 10 μM; type: in vitro ADME, rat; conditions: unbound percent ± standard deviation
Method: as §3

mice = assay: Tail suspension test, immobility time; type: in vivo, mouse; conditions: 0.3 mg/kg i.p., 1 hour after administration, 6 min suspension
Method: 1 hour after administration of compounds, the mice were individually suspended by their tails for 6 minutes, and the average amount of time the mice were immobile was determined. […]

[9] = Stability in simulated gastric fluid; type: physicochemical; conditions: pH 1.60, 37° C., after 120 min
rA1AR = target: T3, rA1AR (Rattus norvegicus, UniProt P25099); assay: Adenosine receptor binding, rA1AR; conditions: (r), read-out: A1AR % inhibition or Ki (converted)
T3 sequence (P25099 1-326): T1 sequence (Q60612 1-326) with E151V, A155D, I157R, E316D, I319L, D325E

hA2AAR = target: T4, hA2AAR (Homo sapiens, UniProt P29274); assay: Radioligand binding in membranes of HEK293 cells expressing hA2AAR; conditions: read-out: A2AAR % inhibition; for Ki: (h), values without % sign (Ki)
T4 construct: expressed in transfected cells; host or cells: HEK293
T4 sequence (P29274 whole entry): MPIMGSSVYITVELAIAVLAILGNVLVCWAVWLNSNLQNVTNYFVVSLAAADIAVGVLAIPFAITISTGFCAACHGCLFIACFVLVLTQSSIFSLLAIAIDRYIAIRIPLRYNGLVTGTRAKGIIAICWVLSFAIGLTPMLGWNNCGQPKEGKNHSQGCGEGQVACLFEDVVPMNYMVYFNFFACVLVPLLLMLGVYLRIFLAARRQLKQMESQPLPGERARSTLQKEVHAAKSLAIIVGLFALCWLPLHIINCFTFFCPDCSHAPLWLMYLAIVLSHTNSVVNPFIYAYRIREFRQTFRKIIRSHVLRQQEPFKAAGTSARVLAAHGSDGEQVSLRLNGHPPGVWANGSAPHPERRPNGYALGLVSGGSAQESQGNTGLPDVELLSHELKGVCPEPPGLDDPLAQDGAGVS

rA2AAR = rA2AAR (Rattus norvegicus, UniProt P30543); assay: Adenosine receptor binding, rA2AAR; conditions: (r); values without % sign (Ki); read-out: A2AAR % inhibition (converted)
Chain of rA2AAR (P30543 whole entry): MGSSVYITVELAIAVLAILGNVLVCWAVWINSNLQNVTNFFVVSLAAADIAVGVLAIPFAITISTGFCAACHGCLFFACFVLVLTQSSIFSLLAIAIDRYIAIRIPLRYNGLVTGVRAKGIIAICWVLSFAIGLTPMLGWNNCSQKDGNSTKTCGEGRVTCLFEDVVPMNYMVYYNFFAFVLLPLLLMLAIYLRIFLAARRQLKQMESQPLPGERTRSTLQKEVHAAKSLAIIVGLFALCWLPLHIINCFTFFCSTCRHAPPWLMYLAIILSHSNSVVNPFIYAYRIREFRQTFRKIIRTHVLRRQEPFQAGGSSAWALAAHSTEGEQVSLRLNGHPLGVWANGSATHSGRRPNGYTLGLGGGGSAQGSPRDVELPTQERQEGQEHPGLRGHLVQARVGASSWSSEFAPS

hA3AR = target: T5, hA3AR (Homo sapiens, UniProt P0DMS8); assay: Radioligand binding in membranes of CHO cells expressing hA3AR
T5 construct: expressed in transfected cells; host or cells: CHO
T5 sequence (P0DMS8 1-318): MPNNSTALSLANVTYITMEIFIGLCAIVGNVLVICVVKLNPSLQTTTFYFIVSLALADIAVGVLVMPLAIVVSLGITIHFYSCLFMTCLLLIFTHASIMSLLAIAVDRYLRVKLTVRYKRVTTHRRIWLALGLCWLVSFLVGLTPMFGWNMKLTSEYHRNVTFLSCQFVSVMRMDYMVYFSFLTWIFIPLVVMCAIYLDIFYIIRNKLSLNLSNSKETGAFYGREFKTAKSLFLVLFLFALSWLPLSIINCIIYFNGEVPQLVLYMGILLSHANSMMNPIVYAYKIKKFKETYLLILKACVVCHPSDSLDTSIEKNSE

mA3AR [10] = target: T2, mA3AR; assay: Adenosine receptor binding, mA3AR; conditions: (m); Ki; read-out: A3AR % inhibition or Ki (converted)
rA3AR = rA3AR (Rattus norvegicus, UniProt P28647); assay: Adenosine receptor binding, rA3AR; conditions: (r), read-out: A3AR % inhibition or Ki (converted)
Chain of rA3AR (P28647 whole entry): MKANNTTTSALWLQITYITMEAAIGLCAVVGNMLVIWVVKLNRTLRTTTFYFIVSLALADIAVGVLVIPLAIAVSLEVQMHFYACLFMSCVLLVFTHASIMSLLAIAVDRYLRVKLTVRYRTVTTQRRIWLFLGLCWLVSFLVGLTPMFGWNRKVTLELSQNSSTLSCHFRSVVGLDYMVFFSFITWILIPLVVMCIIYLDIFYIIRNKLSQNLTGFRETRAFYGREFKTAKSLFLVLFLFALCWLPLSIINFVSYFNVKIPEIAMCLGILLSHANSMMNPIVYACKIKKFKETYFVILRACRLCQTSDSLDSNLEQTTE

hA1AR = target: T6, hA1AR (Homo sapiens, UniProt P30542); assay: Radioligand binding in membranes of CHO cells expressing hA1AR, [3H]N6-R-phenylisopropyladenosine; conditions: (h); Ki; read-out: A1AR % inhibition or Ki
T6 construct: expressed in transfected cells; host or cells: CHO
T6 sequence (P30542 1-326): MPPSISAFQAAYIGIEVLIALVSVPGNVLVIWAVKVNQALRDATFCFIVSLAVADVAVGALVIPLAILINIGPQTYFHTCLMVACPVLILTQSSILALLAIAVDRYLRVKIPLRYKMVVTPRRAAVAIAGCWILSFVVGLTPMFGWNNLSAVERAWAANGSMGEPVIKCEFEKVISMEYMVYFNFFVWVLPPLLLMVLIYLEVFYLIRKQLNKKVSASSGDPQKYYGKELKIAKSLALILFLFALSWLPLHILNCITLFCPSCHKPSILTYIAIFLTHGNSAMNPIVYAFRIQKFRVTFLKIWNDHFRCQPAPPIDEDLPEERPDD

[11] = target: dopamine transporter (DAT) (Homo sapiens, UniProt Q01959); assay: Off-target interaction determined by the PDSP; type: binding; conditions: read-out: Off-target, receptor (h, unless noted) (Ki, μM): DAT
Chain of dopamine transporter (DAT) (Q01959 whole entry): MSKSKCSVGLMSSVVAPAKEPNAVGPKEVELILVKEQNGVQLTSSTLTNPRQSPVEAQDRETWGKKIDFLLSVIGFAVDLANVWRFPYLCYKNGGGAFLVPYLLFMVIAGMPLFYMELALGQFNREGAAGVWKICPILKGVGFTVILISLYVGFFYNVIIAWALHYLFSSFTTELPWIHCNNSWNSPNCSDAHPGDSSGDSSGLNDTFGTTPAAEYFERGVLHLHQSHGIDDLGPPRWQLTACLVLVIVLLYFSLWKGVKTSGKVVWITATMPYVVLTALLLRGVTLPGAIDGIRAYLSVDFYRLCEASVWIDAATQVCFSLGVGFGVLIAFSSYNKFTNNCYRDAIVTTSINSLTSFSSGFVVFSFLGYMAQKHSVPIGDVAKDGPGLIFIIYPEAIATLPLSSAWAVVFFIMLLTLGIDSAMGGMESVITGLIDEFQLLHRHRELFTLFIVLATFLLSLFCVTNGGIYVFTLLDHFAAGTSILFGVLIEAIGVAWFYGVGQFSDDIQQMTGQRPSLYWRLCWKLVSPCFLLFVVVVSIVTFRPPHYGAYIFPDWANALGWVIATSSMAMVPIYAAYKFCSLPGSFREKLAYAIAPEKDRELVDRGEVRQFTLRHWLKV

[12] = target: norepinephrine transporter (NET) (Homo sapiens, UniProt P23975); assay: Off-target interaction determined by the PDSP; type: binding; conditions: read-out: Off-target, receptor (h, unless noted) (Ki, μM): NET
Chain of norepinephrine transporter (NET) (P23975 whole entry): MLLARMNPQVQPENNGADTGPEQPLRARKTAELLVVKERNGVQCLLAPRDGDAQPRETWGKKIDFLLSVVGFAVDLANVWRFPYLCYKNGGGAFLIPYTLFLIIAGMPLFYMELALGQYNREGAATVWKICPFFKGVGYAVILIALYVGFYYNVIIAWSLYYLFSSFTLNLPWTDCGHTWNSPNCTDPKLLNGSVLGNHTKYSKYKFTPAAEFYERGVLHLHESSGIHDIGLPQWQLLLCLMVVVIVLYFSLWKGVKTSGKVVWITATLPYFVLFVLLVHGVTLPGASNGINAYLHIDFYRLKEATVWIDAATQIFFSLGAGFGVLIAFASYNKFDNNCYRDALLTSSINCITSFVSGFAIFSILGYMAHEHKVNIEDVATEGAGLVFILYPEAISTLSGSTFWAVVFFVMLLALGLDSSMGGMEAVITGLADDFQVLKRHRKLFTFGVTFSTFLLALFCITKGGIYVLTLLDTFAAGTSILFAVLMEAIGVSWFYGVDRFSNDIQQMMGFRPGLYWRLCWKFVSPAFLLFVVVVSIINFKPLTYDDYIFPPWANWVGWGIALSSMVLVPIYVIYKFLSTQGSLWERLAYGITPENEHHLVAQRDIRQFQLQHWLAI

sigma receptor σ2 = sigma receptor σ2 (UniProt Q5BJF2); assay: Off-target interaction determined by the PDSP; type: binding, human; conditions: read-out: Off-target, receptor (h, unless noted) (Ki, μM): σ2
histamine receptor H1 = histamine receptor H1 (Homo sapiens, UniProt P35367); assay: Off-target interaction determined by the PDSP; type: binding; conditions: read-out: Off-target, receptor (h, unless noted) (Ki, μM): H1
Chain of histamine receptor H1 (P35367 whole entry): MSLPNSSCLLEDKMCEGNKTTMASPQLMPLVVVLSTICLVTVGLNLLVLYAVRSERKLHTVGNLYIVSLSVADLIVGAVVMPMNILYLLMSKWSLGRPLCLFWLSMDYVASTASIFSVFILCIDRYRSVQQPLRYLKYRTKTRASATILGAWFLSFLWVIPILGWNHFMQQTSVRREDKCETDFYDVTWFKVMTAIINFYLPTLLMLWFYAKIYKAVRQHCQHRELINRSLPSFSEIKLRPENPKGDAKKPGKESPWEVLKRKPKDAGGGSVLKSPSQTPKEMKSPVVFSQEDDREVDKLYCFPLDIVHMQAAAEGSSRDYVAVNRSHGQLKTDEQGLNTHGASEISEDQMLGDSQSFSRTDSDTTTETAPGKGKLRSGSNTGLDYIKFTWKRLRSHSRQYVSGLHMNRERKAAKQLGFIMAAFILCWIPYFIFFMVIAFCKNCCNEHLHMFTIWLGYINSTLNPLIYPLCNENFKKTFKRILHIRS

sigma receptor σ1 = sigma receptor σ1 (Homo sapiens, UniProt Q99720); assay: Off-target interaction determined by the PDSP; type: binding; conditions: read-out: Off-target, receptor (h, unless noted) (Ki, μM): σ1
Chain of sigma receptor σ1 (Q99720 whole entry): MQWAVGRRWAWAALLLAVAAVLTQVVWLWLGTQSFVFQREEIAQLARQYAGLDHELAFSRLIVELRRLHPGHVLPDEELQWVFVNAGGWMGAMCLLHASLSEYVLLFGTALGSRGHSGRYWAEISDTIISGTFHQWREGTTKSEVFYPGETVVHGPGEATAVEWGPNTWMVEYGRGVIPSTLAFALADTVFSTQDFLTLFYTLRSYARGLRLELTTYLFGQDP

serotonin receptor 5HT2C = target: T7, serotonin receptor 5HT2C (Homo sapiens, UniProt P28335); assay: Off-target interaction determined by the PDSP; type: binding; conditions: read-out: Off-target, receptor (h, unless noted) (Ki, μM): 5HT2C
T7 sequence (P28335 33-458): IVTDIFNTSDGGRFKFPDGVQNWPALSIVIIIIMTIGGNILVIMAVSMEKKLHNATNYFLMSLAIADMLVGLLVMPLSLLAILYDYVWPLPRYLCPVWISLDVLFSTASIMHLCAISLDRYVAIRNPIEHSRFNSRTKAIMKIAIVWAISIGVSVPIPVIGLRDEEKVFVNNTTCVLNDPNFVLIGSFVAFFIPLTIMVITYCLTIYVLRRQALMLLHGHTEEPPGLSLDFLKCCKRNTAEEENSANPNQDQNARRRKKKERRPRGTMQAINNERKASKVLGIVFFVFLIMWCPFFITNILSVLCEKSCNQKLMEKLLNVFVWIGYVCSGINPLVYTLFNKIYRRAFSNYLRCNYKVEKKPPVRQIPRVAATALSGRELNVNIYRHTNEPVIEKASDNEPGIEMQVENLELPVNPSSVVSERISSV

[13] = target: rat brain benzodiazepine receptors (BZP); assay: Off-target interaction determined by the PDSP; type: binding; conditions: read-out: Off-target, receptor (h, unless noted) (Ki, μM): BZP (r)
serotonin receptor 5HT2B = serotonin receptor 5HT2B (Homo sapiens, UniProt P41595); assay: Off-target interaction determined by the PDSP; type: binding; conditions: read-out: Off-target, receptor (h, unless noted) (Ki, μM): 5HT2B
Chain of serotonin receptor 5HT2B (P41595 whole entry): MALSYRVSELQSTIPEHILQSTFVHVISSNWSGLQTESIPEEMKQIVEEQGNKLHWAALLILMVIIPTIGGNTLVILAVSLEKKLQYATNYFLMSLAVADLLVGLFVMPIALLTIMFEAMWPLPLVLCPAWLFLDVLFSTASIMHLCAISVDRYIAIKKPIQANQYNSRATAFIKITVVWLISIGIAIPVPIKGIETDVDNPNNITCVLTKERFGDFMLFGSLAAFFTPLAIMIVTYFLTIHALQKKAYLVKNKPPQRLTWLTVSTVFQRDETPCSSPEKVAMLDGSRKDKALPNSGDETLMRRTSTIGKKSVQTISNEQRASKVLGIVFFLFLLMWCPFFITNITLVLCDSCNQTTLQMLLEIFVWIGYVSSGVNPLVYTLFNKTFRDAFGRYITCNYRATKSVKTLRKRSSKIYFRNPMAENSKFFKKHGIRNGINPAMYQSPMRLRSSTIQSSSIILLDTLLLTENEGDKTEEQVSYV

Structure (SMILES) | Binding selectivity for mA1AR (mA1AR [1]) | Emax at 10 µM (mA1AR [2]) | Emax at 10 µM (mA3AR [3]) | Tb (° C.) (wild-type C57BL/6J mice [4]) | Activity (counts) (wild-type C57BL/6J mice [5]) | human, % free [6] | mouse, % free [7] | rat, % free [8] | Ki (mA1AR [1]) | Ki (hA2AAR) | Ki (rA2AAR) | Ki (hA3AR) | Ki (mA3AR [10]) | Ki (hA1AR) | Ki (sigma receptor σ2) | also measured
OC[C@H]1O[C@@H](n2cnc3c(NC(C4CCC4)C4CCC4)nc(Cl)nc32)[C@H](O)C1O (stereo in doubt) [Compound 12, (2R,3R,4R,5R)-2-(2-Chloro-6-((dicyclobutylmethyl)amino)-9H-purin-9-yl)-5-(hydroxymethyl)tetrahydrofuran-3,4-diol] | (1000) fold | 90 ± 19% | 63 ± 5% | 35.5 ± 0.8 °C | 13.5 ± 3.5 counts | 5.81 ± 0.39% | 4.74 ± 0.67% | 4.64 ± 0.06% | – | – | – | – | – | – | – | average immobility time relative to mice treated with 10 mg/kg of fluoxetine (mice): approximately ⅔; average immobility time relative to the control group of mice (mice): approximately ½; initial amount present in simulated gastric fluid [9]: 100%
O[C@@H]1[C@H](O)[C@@H](CCl)O[C@H]1n1cnc2c(NC3CC4CCC3C4)ncnc21 (some centres unmarked) [Compound 3, reference compound] | – | – | – | – | – | – | – | – | 0.14 nM | > 10000 nM | 477 nM | 915 ± 299 nM | 424 nM | – | – | Ki (rA1AR): 0.34 nM; Ki (rA3AR): 282 nM
OC[C@H]1O[C@@H](n2cnc3c(NC(C4CC4)C4CC4)ncnc32)[C@H](O)[C@@H]1O [Compound 8] | – | – | – | – | – | – | – | – | – | 1470 ± 380 nM | 1370 nM | 41.3 ± 5.3 nM | – | 0.85 ± 0.27 nM | – | –
OC[C@H]1O[C@@H](n2cnc3c(NC(C4CCC4)C4CCC4)ncnc32)[C@H](O)[C@@H]1O [Compound 9, (2R,3R,4R,5R)-2-(6-((Dicyclobutylmethyl)amino)-9H-purin-9-yl)-5-(hydroxymethyl)tetrahydrofuran-3,4-diol] | – | – | – | – | – | – | – | – | – | 3550 ± 440 nM | – | – | 897 nM | 2.14 ± 0.52 nM | – | Ki [11]: 1.78 µM; Ki [12]: 4.82 µM
Nc1ncnc2c1ncn2[C@@H]1O[C@H](C(=O)NC2CC2)[C@@H](O)[C@H]1O [Compound 17, reference compound] | – | – | – | – | – | – | – | – | – | 50 ± 10 nM | – | – | – | 1.9 nM | 4.35 µM | Ki (hA3AR; (h), Ki, read-out: A3AR % inhibition or Ki): 180 ± 50 nM; Ki (histamine receptor H1): 7.88 µM
OC[C@@]12C[C@@H]1[C@@H](n1cnc3c(NC(C4CCC4)C4CCC4)ncnc31)[C@H](O)[C@@H]2O [Compound 24, (1R,2R,3S,4R,5S)-4-(6-((Dicyclobutylmethyl)amino)-9H-purin-9-yl)-1-(hydroxymethyl)bicyclo[3.1.0]hexane-2,3-diol] | (1730) fold | 97 ± 11% | 92 ± 3% | 36.2 ± 0.4 °C | 18.1 ± 6.8 counts | 14.6 ± 1.3% | 27.5 ± 1.7% | 17.8 ± 1.2% | 0.53 nM | – | – | – | 918 nM | 22.7 ± 3 nM | 0.753 µM | inhibition at 10 µM (hA2AAR): 34 ± 1%; inhibition at 10 µM (hA3AR; read-out: A3AR % inhibition or Ki): 51 ± 6%; Ki (sigma receptor σ1): 1.79 µM; Ki (serotonin receptor 5HT2C): 1.32 µM; Ki [13]: 4.08 µM; Ki (serotonin receptor 5HT2B): 0.214 µM
